The values below come from patent US9855283B2, “Composition comprising GPCR19 agonist as an active ingredient for preventing or treating allergic dermatitis” (SHAPERON Inc., priority 2013, dated 2018).

In test [1] the test system is atopic dermatitis lesions on shaved-back of Balb/C mice. The experiment in a line: Clinical score of DNCB-induced atopic dermatitis lesions (five items, worst score 15). The format is in vivo. Particulars: day 15. How it is done: (§1) In order to test efficacy of the sodium taurodeoxycholate (HY2191) composition on atopic dermatitis, dermatitis lesion was induced at the shaved-back of 6 weeks old male Balb/C mice. DNCB (2,4-dinitro-1-chlorobenzene, Sigma) was used as a hapten.
Five mice for each group were tested. The amount of IgE in blood of mice was measured to evaluate an inhibitory effect of a medication on IgE production. To make skin lesion of atopic dermatitis, 100 μL of a DNCB solution (2.5% in acetone) was applied on the shaved-back of the mouse at day 1. One hundred μL of DNCB (1% in acetone) was applied at day 4 and 100 μL of 0.2% DNCB in acetone at day 10. […]
In order to evaluate the efficacy of sodium taurodeoxycholate on atopic dermatitis, atopic dermatitis was induced on shaved-back of Balb/C mice with DNCB according to experimental example 1 and clinical scores of atopic dermatitis lesions incurred on the back of animal model was evaluated on day 15. To evaluate clinical scores at day 15, (1) the frequency of scratching for 2 minutes, (2) the severity of erythema/hemorrhage, (3) edema, (4) excoriation/erosion, and (5) scaling/dryness were graded and were scored from 0 (none) to 3 (severe), making the worst score 15 for the most severe subject. The every subject in every group was evaluated by three people in a double-blind method. The mean clinical score of individual mouse was calculated.

For test [2], the system named is dorsal skin of atopic mice. Kind of test: Histopathology (H&E) of dorsal skin: thickness of epidermis and dermis. The format is in vivo, Balb/C mice. The conditions noted are these: for thickness of the epidermis: DNCB only 320.2±21.6 μm, sham 26.1±1.0 μm; for thickness of dermis: DNCB only 930.2±34.2 μm, sham 384.7±11.4 μm. How it is done:
In order to test efficacy of the sodium taurodeoxycholate (HY2191) composition on atopic dermatitis, dermatitis lesion was induced at the shaved-back of 6 weeks old male Balb/C mice. DNCB (2,4-dinitro-1-chlorobenzene, Sigma) was used as a hapten. Five mice for each group were tested. The amount of IgE in blood of mice was measured to evaluate an inhibitory effect of a medication on IgE production. To make skin lesion of atopic dermatitis, 100 μL of a DNCB solution (2.5% in acetone) was applied on the shaved-back of the mouse at day 1. One hundred μL of DNCB (1% in acetone) was applied at day 4 and 100 μL of 0.2% DNCB in acetone at day 10. From the day 7 to the day 14, 100 μL of the composition of 2.5% or 5% sodium taurodeoxycholate (HY2191) of example 1 was applied on the back of mice twice a day. Maxidex ointment (Dexamethasone, Alcon Korea) and Protopic ointment (Tacrolimus, Astellas Pharma Korea) were used for positive control groups and only a vehicle was used for a negative control group. The dorsal skin flaps of the mice were fixed in a 10% formalin solution for 24 hours and then washed with distilled water. The paraffin blocks of the fixed skins were prepared and sectioned (thickness of 7 μm). They were stained with hematoxylin and eosin (H&E) (FIG. 5A). The thickness of epidermis and the dermis of mice treated with DNCB only were 320.2±21.6 μm and 930.2±34.2 μm, respectively. […] The thickness of dermis from the group of atopic mice treated with 2.5% sodium taurodeoxycholate (HY2191), 5% sodium taurodeoxycholate (HY2191), or Protopic were 616.0±21.1 μm, 521.7±18.3 μm, and 572.6±20.2 μm, respectively.

Test [3] concerns IL-4. The experiment in a line: Serum TH2 cytokine IL-4 by ELISA in DNCB-induced atopic dermatitis mice. Type of test: in vivo, Balb/C mice. The conditions noted are these: 5% composition; better than mice treated with Protopic or Maxidex (p<0.05).
The subject of test [4] is IL-2. The experiment in a line: Serum TH1 cytokine IL-2 by ELISA in DNCB-induced atopic dermatitis mice. Type of test: in vivo, Balb/C mice. Particulars: 5% composition; far better than mice treated with Protopic or Maxidex (p<0.05). For orientation: ELISA stands for enzyme-linked immunosorbent assay.
In test [5] the test system is serum IgE. The experiment in a line: Serum IgE level by ELISA in DNCB-induced atopic dermatitis mice. Type of test: in vivo, Balb/C mice. Particulars: FIG. 3. How it is done:
as §1
(§2) Five mice for each group were tested. The amount of IgE in blood of mice was measured to evaluate an inhibitory effect of a medication on IgE production. To make skin lesion of atopic dermatitis, 100 μL of a DNCB solution (2.5% in acetone) was applied on the shaved-back of the mouse at day 1. One hundred μL of DNCB (1% in acetone) was applied at day 4 and 100 μL of 0.2% DNCB in acetone at day 10.
(§3) From the day 7 to the day 14, 100 μL of the composition of 2.5% or 5% sodium taurodeoxycholate (HY2191) of example 1 was applied on the back of mice twice a day. Maxidex ointment (Dexamethasone, Alcon Korea) and Protopic ointment (Tacrolimus, Astellas Pharma Korea) were used for positive control groups and only a vehicle was used for a negative control group.
After the clinical evaluation described at Experimental Example 2, a mixture containing 0.4% of Zoletil (Virbac, Milano Italy) and 0.04% of Rompun (Bayer Korea) in normal saline was injected i.p. to anesthetize each mouse. Blood samples were collected from the heart of the mice. The serum was prepared to measure the concentration of IgE using enzyme immunoassay (Mouse IgE ELISA, BD). […]

Test [6] concerns neutrophils. The experiment in a line: Neutrophils infiltrated into the dermis (specific esterase, Naphthol AS-D chloroacetate). Type of test: in vivo, Balb/C mice. Particulars: compared with vehicle-treated group. How it is done:
as §1, §2, §3
(§4) The number of mast cells, eosinophils, and neutrophils infiltrated into the dermis were counted after staining skins with toluidine blue, congo red, or specific esterase (Naphthol AS-D chloroacetate), respectively. […] On the other hand, the number of neutrophils critical for acute inflammation was increased in the group of atopic mice treated with Protopic.

In test [7] the test system is IFN-γ. Kind of test: Serum TH1 cytokine IFN-γ by ELISA in DNCB-induced atopic dermatitis mice. The format is in vivo, Balb/C mice. The conditions noted are these: 5% composition; far better than mice treated with Protopic or Maxidex (p<0.05).
Test [8] relates to eosinophils. The experiment in a line: Eosinophils infiltrated into the dermis (congo red). The conditions noted are these: compared with vehicle-treated group (p<0.05). Type of test: in vivo, Balb/C mice. How it is done: as §1, §2, §3, §4
For test [9], the system named is mast cells. Kind of test: Mast cells infiltrated into the dermis (toluidine blue). Type of test: in vivo, Balb/C mice. The conditions noted are these: compared with vehicle-treated group (p<0.05). How it is done:
as §1, §2, §3, §4

On to `C[C@H](CCC(=O)NCCS(=O)(=O)O)[C@H]1CC[C@H]2[C@@H]3CC[C@@H]4C[C@H](O)CC[C@]4(C)[C@H]3C[C@H](O)[C@]12C` [sodium taurodeoxycholate (HY2191), sodium taurodeoxycholate], for which the clinical scores entry in [1] (5% composition, compared to positive control group that received Maxidex ointment or Protopic ointment) is on record as “better clinical scores”. In test [1] (compared to negative control group treated with vehicle only, topical twice a day, day 7 to 14), the clinical score result was “better clinical score”. The “thickness of the epidermis” value worked out at 105.3±7.0 μm in test [2] (2.5% composition) and 75.0±8.4 μm in test [2] (5% composition). The thickness of dermis amounted to 616.0±21.1 μm in [2] (2.5% composition) and 521.7±18.3 μm in [2] (5% composition). The “level of IL-4 (TH2 cytokine) in serum” value in test [3] is reported as “decreased significantly”. Besides, the “level of IL-2 (TH1 cytokine) in serum” value in test [4] was “increased significantly”. Besides, the “inhibiting serum IgE production” value in [5] (2.5% or 5% composition) was “effective in inhibiting serum IgE production”. For the same compound, the “serum IgE levels” value in test [5] (compared with positive control groups (Maxidex ointment or Protopic ointment)) is “significantly lower”. For the same compound, the “number of neutrophils in the skin of atopic mice” value in [6] is “significantly decreased”. Moreover, in [7], the “level of IFN-γ (TH1 cytokine) in serum” value is recorded as “increased significantly”. The “number of eosinophils in the skin of atopic mice” value in [8] is “significantly decreased”. Further, the “number of mast cells in the skin of atopic mice” value in test [9] is “significantly decreased”.
